Legend:
pigweed = assay: Test B pre-/postemergence herbicide test; assay type: in vivo, Amaranthus retroflexus; settings: for Pigweed plant response rating: postemergence, visual rating, scale 0 (no effect) to 100 (complete control)
Procedure, shortened: (§1)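 Seeds were planted and treated preemergence with compounds formulated in a non-phytotoxic solvent mixture containing surfactant, while plants at the 1- to 4-leaf stage (2 to 18 cm) received postemergence sprays. Flooded paddy plants were grown to the 2-leaf stage. After 13 to 15 days in a greenhouse, injury was visually rated 0–100 against untreated controls.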

large crabgrass = assay: Test B pre-/postemergence herbicide test; assay type: in vivo, Digitaria sanguinalis; settings: for Crabgrass, Large plant response rating: postemergence, visual rating, scale 0 (no effect) to 100 (complete control)
Procedure, shortened: as §1

wild oat = assay: Test B postemergence herbicide test; assay type: in vivo, Avena fatua; settings: postemergence, visual rating, scale 0 (no effect) to 100 (complete control)
Procedure, shortened: (§2)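 Each value is a visual 0–100 response rating taken against controls 13 to 15 days after treatment in the greenhouse. Plants received formulated chemical postemergence at the 1- to 4-leaf stage or, in flooded paddy, at the 2-leaf stage.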

rice = assay: Test B flooded paddy test; assay type: in vivo, Oryza sativa; settings: 1000 g ai/ha, visual rating, scale 0 to 100 (0 no effect, 100 complete control), 13 to 15 days
Procedure, shortened: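 Visual ratings, 0 (no effect) to 100 (complete control), made versus controls after 13–15 d greenhouse. Paddy plants treated at 2-leaf stage; postemergence plants at 1- to 4-leaf stage, 2–18 cm tall.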

lambsquarters = assay: Test B pre-/postemergence herbicide test; assay type: in vivo, Chenopodium album; settings: for Lambsquarters plant response rating: postemergence, visual rating, scale 0 (no effect) to 100 (complete control)
Procedure, shortened: as §1

blackgrass = assay: Test B postemergence herbicide test; assay type: in vivo, Alopecurus myosuroides; settings: postemergence, visual rating, scale 0 (no effect) to 100 (complete control)
Procedure, shortened: (§3)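 Paddy species grown to the 2-leaf stage under flooding; blackgrass sprayed postemergence at 2–18 cm (1- to 4-leaf stage). Plants kept in a greenhouse for 13 to 15 days, then visually rated against controls on 0 (no effect) to 100 (complete control).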

wheat = assay: Test B postemergence herbicide test; assay type: in vivo, Triticum aestivum; parameters: key to Wheat plant response rating: 0 = no effect, 100 = complete control; settings: postemergence, visual rating, scale 0 (no effect) to 100 (complete control)
Procedure, shortened: as §2

barnyardgrass = assay: Test B pre-/postemergence herbicide test; assay type: in vivo, Echinochloa crus-galli; settings: for Barnyardgrass plant response rating: postemergence, visual rating, scale 0 (no effect) to 100 (complete control)
Procedure, shortened: (§4)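 Test chemicals in a non-phytotoxic solvent mixture with surfactant were applied preemergence to seeded species and postemergence to plants 2-18 cm tall (1- to 4-leaf stage); rice and barnyardgrass were also tested in a flooded paddy at the 2-leaf stage. Visual rating versus controls after 13-15 days in greenhouse, scale 0 (no effect) to 100 (complete control).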

[1] = test system: small flower umbrella sedge; assay: Test B flooded paddy test; assay type: in vivo, Cyperus difformis; settings: 1000 g ai/ha, visual rating, scale 0 to 100 (0 no effect, 100 complete control), 13 to 15 days
Procedure, shortened: as §3

Surinam grass = assay: Test B pre-/postemergence herbicide test; assay type: in vivo, Urochloa decumbens; settings: for Surinam Grass plant response rating: postemergence, visual rating, scale 0 (no effect) to 100 (complete control)
Procedure, shortened: as §1

velvetleaf = assay: Test B pre-/postemergence herbicide test; assay type: in vivo, Abutilon theophrasti; settings: for Velvetleaf plant response rating: postemergence, visual rating, scale 0 (no effect) to 100 (complete control)
Procedure, shortened: as §1

giant foxtail = assay: Test B pre-/postemergence herbicide test; assay type: in vivo, Setaria faberi; settings: for Foxtail, Giant plant response rating: postemergence, visual rating, scale 0 (no effect) to 100 (complete control)
Procedure, shortened: as §1

morningglory = assay: Test B pre-/postemergence herbicide test; assay type: in vivo, Ipomoea coccinea; settings: for Morningglory plant response rating: postemergence, visual rating, scale 0 (no effect) to 100 (complete control)
Procedure, shortened: as §4

ducksalad = assay: Test B flooded paddy test; assay type: in vivo, Heteranthera limosa; settings: 1000 g ai/ha, visual rating, scale 0 to 100 (0 no effect, 100 complete control), 13 to 15 days
Procedure, shortened: as §3

corn = assay: Test B pre-/postemergence herbicide test; assay type: in vivo, Zea mays; settings: for Corn plant response rating: postemergence, visual rating, scale 0 (no effect) to 100 (complete control)
Procedure, shortened: as §1

[2] = 125 g ai/ha, 0 = no effect, 100 = complete control, preemergence
[3] = 500 g ai/ha, visual rating 0-100, 0 no effect, 100 complete control, preemergence

## CC(=NO)c1cccc(NC(=O)c2sc(C(C)(C)C)nc2C)c1 [Compound 195]
pigweed; [2]
  Pigweed plant response rating (0 to 100 scale): 90
pigweed; [3]
  Plant response rating, Pigweed: 90
pigweed; 125 g ai/ha
  Pigweed plant response rating: 70
pigweed; 500 g ai/ha
  Pigweed plant response rating: 80
Large crabgrass; [2]
  Crabgrass, Large plant response rating (0 to 100 scale): 80
Large crabgrass; [3]
  Plant response rating, Crabgrass, Large: 100
Large crabgrass; 125 g ai/ha
  Crabgrass, Large plant response rating: 20
Large crabgrass; 500 g ai/ha
  Crabgrass, Large plant response rating: 50
Wild oat; 125 g ai/ha
  Oat, Wild plant response rating: 10
Wild oat; 500 g ai/ha
  Oat, Wild plant response rating: 20
rice
  Rice plant response rating: 30
lambsquarters; [2]
  Lambsquarters plant response rating (0 to 100 scale): 0
lambsquarters; [3]
  Plant response rating, Lambsquarters: 80
lambsquarters; 125 g ai/ha
  Lambsquarters plant response rating: 0
lambsquarters; 500 g ai/ha
  Lambsquarters plant response rating: 60
blackgrass; 125 g ai/ha
  Blackgrass plant response rating: 0
blackgrass; 500 g ai/ha
  Blackgrass plant response rating: 10
wheat; 125 g ai/ha
  Wheat plant response rating: 10
wheat; 500 g ai/ha
  Wheat plant response rating: 20
barnyardgrass; [2]
  Barnyardgrass plant response rating (0 to 100 scale): 40
barnyardgrass; [3]
  Plant response rating, Barnyardgrass: 90
barnyardgrass; 125 g ai/ha
  Barnyardgrass plant response rating: 40
barnyardgrass; 500 g ai/ha
  Barnyardgrass plant response rating: 90
[1]
  Sedge, Umbrella plant response rating: 50
Surinam grass; [2]
  Surinam Grass plant response rating (0 to 100 scale): 10
Surinam grass; [3]
  Plant response rating, Surinam Grass: 30
Surinam grass; 125 g ai/ha
  Surinam Grass plant response rating: 10
Surinam grass; 500 g ai/ha
  Surinam Grass plant response rating: 30
velvetleaf; [2]
  Velvetleaf plant response rating (0 to 100 scale): 10
velvetleaf; [3]
  Plant response rating, Velvetleaf: 20
velvetleaf; 125 g ai/ha
  Velvetleaf plant response rating: 20
velvetleaf; 500 g ai/ha
  Velvetleaf plant response rating: 40
Giant foxtail; [2]
  Foxtail, Giant plant response rating (0 to 100 scale): 20
Giant foxtail; [3]
  Plant response rating, Foxtail, Giant: 60
Giant foxtail; 125 g ai/ha
  Foxtail, Giant plant response rating: 20
Giant foxtail; 500 g ai/ha
  Foxtail, Giant plant response rating: 20
morningglory; [2]
  Morningglory plant response rating (0 to 100 scale): 10
morningglory; [3]
  Plant response rating, Morningglory: 40
morningglory; 125 g ai/ha
  Morningglory plant response rating: 0
morningglory; 500 g ai/ha
  Morningglory plant response rating: 60
ducksalad
  Ducksalad plant response rating: 40
corn; [2]
  Corn plant response rating (0 to 100 scale): 0
corn; [3]
  Plant response rating, Corn: 0
corn; 125 g ai/ha
  Corn plant response rating: 20
corn; 500 g ai/ha
  Corn plant response rating: 30
